Experimental data published in ChEMBL document CHEMBL1139017, “Synthesis and biological activity of (+)-hedychilactone A and its analogs from (+)-sclareolide” (Bioorg Med Chem Lett, 2006).
In brackets after ≈: the same amount, converted by molar mass.

Key:
[1] = tested on: SK-OV-3; test: Cytotoxicity against sk-ov-3 cancer cell line; type: functional, cell-based; conditions: Homo sapiens
[2] = tested on: U-87 MG; test: Cytotoxicity against U87 cancer cell line; type: functional, cell-based, U-87MG ATCC; conditions: Homo sapiens
[3] = tested on: B16; test: Cytotoxicity against B16 cancer cell line; type: functional, cell-based; conditions: Mus musculus
[4] = tested on: U373 MG; test: Cytotoxicity against U373 cancer cell line; type: functional, cell-based, U-373MG ATCC; conditions: Homo sapiens
[5] = tested on: SiHa; test: Cytotoxicity against SiHa cancer cell line; type: functional, cell-based; conditions: Homo sapiens
[6] = tested on: HUVEC; test: Inhibition of NO production in HUVEC cells; type: functional, cell-based; conditions: Homo sapiens
[7] = tested on: HUVEC; test: Antiangiogenic activity against HUVEC cells; type: functional, cell-based; conditions: Homo sapiens

Row | Compound | IC50 [1] | IC50 [2] | IC50 [3] | IC50 [4] | IC50 [5] | IC50 [6] | IC50 [7]
1 | C=C1C(=O)C[C@H]2C(C)(C)CCC[C@]2(C)[C@H]1C/C=C1/CCOC1=O | 0.8 µg/mL (≈ 2.53 µM) | 1.43 µg/mL (≈ 4.52 µM) | 1.5 µg/mL (≈ 4.74 µM) | 0.6 µg/mL (≈ 1.9 µM) | 3.4 µg/mL (≈ 10.7 µM) | 0.9 µg/mL (≈ 2.84 µM) | 0.6 µg/mL (≈ 1.9 µM)
2 | CC(=O)O[C@H]1C(=O)[C@@]2(C)[C@H]([C@H](OC(=O)c3ccccc3)[C@]3(O)C[C@H](OC(=O)[C@H](O)[C@@H](NC(=O)c4ccccc4)c4ccccc4)C(C)=C1C3(C)C)[C@]1(OC(C)=O)CO[C@@H]1C[C@@H]2O [PACLITAXEL] | 8.7 µg/mL (≈ 10.2 µM) | 3.2 µg/mL (≈ 3.75 µM) | < 0.1 µg/mL | – | 1.3 µg/mL (≈ 1.52 µM) | – | 0.3 µg/mL (≈ 0.351 µM)
3 | CC1=CC[C@H]2C(C)(C)CCC[C@]2(C)[C@H]1C/C=C1\CCOC1=O | 6 µg/mL (≈ 19.8 µM) | 9.2 µg/mL (≈ 30.4 µM) | 9.1 µg/mL (≈ 30.1 µM) | 4.7 µg/mL (≈ 15.5 µM) | 17 µg/mL (≈ 56.2 µM) | 18 µg/mL (≈ 59.5 µM) | 2.6 µg/mL (≈ 8.6 µM)
4 | C=C1[C@@H](O)C[C@H]2C(C)(C)CCC[C@]2(C)[C@H]1C/C=C1\CCOC1=O [HEDYCHILACTONE A] | 8.7 µg/mL (≈ 27.3 µM) | 36.8 µg/mL (≈ 116 µM) | > 50 µg/mL | > 50 µg/mL | > 50 µg/mL | 11 µg/mL (≈ 34.5 µM) | 12.6 µg/mL (≈ 39.6 µM)
5 | C=C1CC[C@H]2C(C)(C)CCC[C@]2(C)[C@H]1C/C=C1/CCOC1=O | 4.3 µg/mL (≈ 14.2 µM) | > 50 µg/mL | 17.6 µg/mL (≈ 58.2 µM) | 40.4 µg/mL (≈ 134 µM) | > 50 µg/mL | 4.5 µg/mL (≈ 14.9 µM) | 2.2 µg/mL (≈ 7.27 µM)
6 | C=C1[C@H](O)C[C@H]2C(C)(C)CCC[C@]2(C)[C@H]1C/C=C1/CCOC1=O | 10.1 µg/mL (≈ 31.7 µM) | > 50 µg/mL | > 50 µg/mL | > 50 µg/mL | > 50 µg/mL | 8 µg/mL (≈ 25.1 µM) | 12.4 µg/mL (≈ 38.9 µM)
7 | C=C1[C@H](O)C[C@H]2C(C)(C)CCC[C@]2(C)[C@H]1C/C=C1\CCOC1=O | 12.4 µg/mL (≈ 38.9 µM) | 12.7 µg/mL (≈ 39.9 µM) | 16.7 µg/mL (≈ 52.4 µM) | 14.9 µg/mL (≈ 46.8 µM) | 32 µg/mL (≈ 100 µM) | 13.2 µg/mL (≈ 41.4 µM) | 6.9 µg/mL (≈ 21.7 µM)
8 | CC1=CC[C@H]2C(C)(C)CCC[C@]2(C)[C@H]1C/C=C1/CCOC1=O | > 50 µg/mL | > 50 µg/mL | > 50 µg/mL | > 50 µg/mL | > 50 µg/mL | > 25 µg/mL | 4.3 µg/mL (≈ 14.2 µM)
9 | C=C1CC[C@H]2C(C)(C)CCC[C@]2(C)[C@H]1CC=O | 3.1 µg/mL (≈ 13.2 µM) | 4.1 µg/mL (≈ 17.5 µM) | 4 µg/mL (≈ 17.1 µM) | 7 µg/mL (≈ 29.9 µM) | 14.5 µg/mL (≈ 61.9 µM) | > 25 µg/mL | 2.9 µg/mL (≈ 12.4 µM)
10 | C=C1C(=O)C[C@H]2C(C)(C)CCC[C@]2(C)[C@H]1C/C=C1\CCOC1=O | 0.9 µg/mL (≈ 2.84 µM) | 1.7 µg/mL (≈ 5.37 µM) | 3.4 µg/mL (≈ 10.7 µM) | 3.7 µg/mL (≈ 11.7 µM) | 7 µg/mL (≈ 22.1 µM) | 0.7 µg/mL (≈ 2.21 µM) | 1.2 µg/mL (≈ 3.79 µM)
11 | C=C1CC[C@H]2C(C)(C)CCC[C@]2(C)[C@H]1C/C=C1\CCOC1=O | 2 µg/mL (≈ 6.61 µM) | 5 µg/mL (≈ 16.5 µM) | 17.6 µg/mL (≈ 58.2 µM) | 15.1 µg/mL (≈ 49.9 µM) | 20.2 µg/mL (≈ 66.8 µM) | 5 µg/mL (≈ 16.5 µM) | 1.7 µg/mL (≈ 5.62 µM)
12 | CC1=CC[C@H]2C(C)(C)CCC[C@]2(C)[C@H]1CC=O | 23.5 µg/mL (≈ 100 µM) | 11.7 µg/mL (≈ 49.9 µM) | 21.8 µg/mL (≈ 93 µM) | 20.6 µg/mL (≈ 87.9 µM) | 20.9 µg/mL (≈ 89.2 µM) | 6 µg/mL (≈ 25.6 µM) | 4.8 µg/mL (≈ 20.5 µM)
13 | C=C1[C@@H](O)C[C@H]2C(C)(C)CCC[C@]2(C)[C@H]1C/C=C1/CCOC1=O | 5.3 µg/mL (≈ 16.6 µM) | > 50 µg/mL | > 50 µg/mL | 15.7 µg/mL (≈ 49.3 µM) | 31.7 µg/mL (≈ 99.5 µM) | 11.2 µg/mL (≈ 35.2 µM) | 13.8 µg/mL (≈ 43.3 µM)
